System: back of volunteers (10 healthy adult males)
Experiment: Vasoconstrictive activity: skin paleness after application of 0.1 % ointment in fin chamber
Type: in vivo
Conditions: for % of the number of subject which showed (+) Paleness was clearly observed / % of the number of subject which showed (±) Paleness was slightly obseved: 0.1 % by weight, about 20 mg of sample, 10 subjects; for vasoconstrictive activity (skin paleness), overall result in words: 0.1 % by weight in white petrolatum base, compared with reference ointments of prednisolone and dexamethasone
Method: The compounds of the present invention were tested for the vasoconstrictive activity in the following manner.
Each of the compounds (1) to (10) of the present invention was mixed in a white petrolatum base (white petrolatum : liquid paraffin = 9 : 1) at a concentration of 0.1 % by weight for use as a test sample. Commercially available steroidal medicaments (ointments of prednisolone and dexamethasone) were used at a concentration of 0.1 % by weight of the steroid as a reference sample. A commercially available ointment base was used as a control.
To one portion of the back of volunteers (10 healthy adult males) was applied each sample. About 20 mg of each sample was put in an aluminum part of fin chamber, which was applied. Two hours and four hours after the application, samples were simultanously removed. […] The result was evaluated based on the following criteria (-) Paleness was not observed. (±) Paleness was slightly obseved. (+) Paleness was clearly observed.

[1] = application time 2 hr, 2 hours after removal
[2] = application time 2 hr, 4 hours after removal
[3] = application time 4 hr, 2 hours after removal
[4] = application time 4 hr, 4 hours after removal

Structure (SMILES)	% of the number of subject which showed (+) Paleness was clearly observed [1] [%]	% of the number of subject which showed (±) Paleness was slightly obseved [1] [%]	% of the number of subject which showed (+) Paleness was clearly observed [2] [%]	% of the number of subject which showed (±) Paleness was slightly obseved [2] [%]	% of the number of subject which showed (+) Paleness was clearly observed [3] [%]	% of the number of subject which showed (±) Paleness was slightly obseved [3] [%]	% of the number of subject which showed (+) Paleness was clearly observed [4] [%]	% of the number of subject which showed (±) Paleness was slightly obseved [4] [%]	vasoconstrictive activity (skin paleness), overall result in words
C[C@@H]1C[C@H]2[C@@H]3CCC4=CC(=O)C=C[C@]4(C)[C@@]3(F)[C@@H](O)C[C@]2(C)[C@@]1(O)C(=O)CO [Dexamethasone, dexamethasone, reference compound]	0	0	0	10	0	10	0	20	–
COC(=O)[C@H](OC(=O)C(C)(C)C)[C@@]1(O)[C@H](C)C[C@H]2[C@@H]3CCC4=CC(=O)C=C[C@]4(C)[C@@]3(F)[C@@H](O)C[C@@]21C [Compound (10), methyl (20R)-11β,17-dihydroxy-9α-fluoro-16α-methyl-3-oxo-20-pivaloyloxy-1,4-pregnadien-21-oate]	0	0	0	10	0	0	0	10	–
COC(=O)[C@H](OC(C)=O)[C@@]1(O)[C@H](C)C[C@H]2[C@@H]3CCC4=CC(=O)C=C[C@]4(C)[C@@]3(F)[C@@H](O)C[C@@]21C [Compound (8), methyl (20S/R)-acetoxy-11β,17-dihydroxy-9α-fluoro-16α-methyl-3-oxo-1,4-pregnadien-21-oate]	–	–	–	–	–	–	–	–	did not show significant difference from reference
COC(=O)[C@@H](OC(=O)C(C)(C)C)[C@@]1(O)[C@H](C)C[C@H]2[C@@H]3CCC4=CC(=O)C=C[C@]4(C)[C@@]3(F)[C@@H](O)C[C@@]21C [Compound (9), methyl (20S)-11β,17-dihydroxy-9α-fluoro-16α-methyl-3-oxo-20-pivaloyloxy-1,4-pregnadien-21-oate]	0	0	0	0	0	50	10	90	excellent pharmacological activity
COC(=O)[C@H](OC(=O)C(C)(C)C)[C@@]1(O)CC[C@H]2[C@@H]3CCC4=CC(=O)C=C[C@]4(C)[C@H]3[C@@H](O)C[C@@]21C [Compound (4)]	0	10	0	70	20	70	40	100	–
COC(=O)[C@H](O)[C@@]1(O)[C@H](C)C[C@H]2[C@@H]3CCC4=CC(=O)C=C[C@]4(C)[C@@]3(F)[C@@H](O)C[C@@]21C [(6), methyl (20R)-9α-fluoro-16α-methyl-11β,17,20-trihydroxy-3-oxo-1,4-pregnadien-21-oate]	–	–	–	–	–	–	–	–	did not show significant difference from reference
C[C@]12C=CC(=O)C=C1CC[C@@H]1[C@@H]2[C@@H](O)C[C@@]2(C)[C@H]1CC[C@]2(O)C(=O)CO [Prednisolone, prednisolone, reference compound]	0	0	0	0	0	0	0	0	–
COC(=O)[C@@H](OC(C)=O)[C@@]1(O)[C@H](C)C[C@H]2[C@@H]3CCC4=CC(=O)C=C[C@]4(C)[C@@]3(F)[C@@H](O)C[C@@]21C [Compound (7), methyl (20S/R)-acetoxy-11β,17-dihydroxy-9α-fluoro-16α-methyl-3-oxo-1,4-pregnadien-21-oate]	0	10	0	50	30	70	50	80	excellent pharmacological activity
COC(=O)[C@@H](O)[C@@]1(O)[C@H](C)C[C@H]2[C@@H]3CCC4=CC(=O)C=C[C@]4(C)[C@@]3(F)[C@@H](O)C[C@@]21C [(5), methyl (20S)-9α-fluoro-16α-methyl-11β,17,20-trihydroxy-3-oxo-1,4-pregnadien-21-oate]	–	–	–	–	–	–	–	–	did not show significant difference from reference
